Results on 19 compounds are retold here after ChEMBL document CHEMBL5108055, “Dual A1/A3 Adenosine Receptor Antagonists: Binding Kinetics and Structure-Activity Relationship Studies Using Mutagenesis and Alchemical Binding Free Energy Calculations” (J Med Chem, 2022).

In test [1] the target is T1, Adenosine receptor A3 (Homo sapiens, UniProt P0DMS8).
T1 sequence (P0DMS8 whole entry): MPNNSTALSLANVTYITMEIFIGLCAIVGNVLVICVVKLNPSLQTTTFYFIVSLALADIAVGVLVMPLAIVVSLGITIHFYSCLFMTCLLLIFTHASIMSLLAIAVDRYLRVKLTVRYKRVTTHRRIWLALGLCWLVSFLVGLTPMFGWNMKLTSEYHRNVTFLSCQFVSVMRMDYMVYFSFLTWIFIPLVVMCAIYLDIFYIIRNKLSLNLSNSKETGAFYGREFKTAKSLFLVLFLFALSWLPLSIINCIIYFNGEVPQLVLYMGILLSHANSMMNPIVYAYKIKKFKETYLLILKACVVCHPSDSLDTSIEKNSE
The test is described as follows: Binding affinity to N-terminal Nano-luc tagged human adenosine A3R expressed in HEK293 cells membrane. The class given is cell membranes.

For test [2], the target named is T2, Adenosine receptor A3 (Homo sapiens) (UniProt P0DMS8).
T2 sequence (whole entry): T1 sequence (P0DMS8 whole entry)
The test is described as follows: Binding affinity to N-terminal Nano-luc tagged human adenosine A3R expressed in HEK293 cells membrane assessed as association constant (kon). Type of test: cell membranes. As to conditions: filed as antagonist.

Test [3] has as its target T2, Adenosine receptor A3 (Homo sapiens). Nature of the test: Binding affinity to N-terminal Nano-luc tagged human adenosine A3R expressed in HEK293 cells membrane assessed as residence time. Type of test: cell membranes. The note with it: filed as antagonist.
The target is the same in test [4]. The test is described as follows: Binding affinity to N-terminal Nano-luc tagged human adenosine A3R expressed in HEK293 cells membrane assessed as dissociation constant (koff). The class given is cell membranes. The note with it: filed as antagonist.
Test [5] shares this target. Nature of the test: Binding affinity to human adenosine A3R expressed in CHO cells membrane assessed as binding constant (kon). Type of test: cell membranes. As to conditions: filed as antagonist.
For test [6] the target is unchanged. Nature of the test: Binding affinity to human adenosine A3R expressed in CHO cells membrane assessed as residence time. Type of test: cell membranes. The note with it: filed as antagonist.
The target is the same in test [7]. The test is described as follows: Binding affinity to human adenosine A3R expressed in CHO cells membrane assessed as dissociation constant (koff). Type of test: cell membranes. The note with it: filed as antagonist.
Test [8] concerns the target T1, Adenosine receptor A3. The test is described as follows: Binding affinity to human adenosine A3R expressed in CHO cells membrane. The class given is cell membranes.
The target in test [9] is T1, Adenosine receptor A3. Nature of the test: Binding affinity to wild type A3R (unknown origin) expressed in Flp-In-CHO cells assessed as dissociation constant by Schild analysis. The class given is cell-based.
Test [10] has as its target T1, Adenosine receptor A3. Nature of the test: Binding affinity to Nluc-A3R (unknown origin) expressed in HEK293 cells by nanoBRET assay. The class given is cell-based.
The target in test [11] is T1, Adenosine receptor A3. Nature of the test: Binding affinity to wild type A3R (unknown origin) expressed in CHO-K1 cells assessed as equilibrium binding affinity constant by nanoBRET assay. The class given is cell-based, Flp-In-CHO.
Test [12] has as its target T1, Adenosine receptor A3. Nature of the test: Antagonist activity at wild type A3R (unknown origin) expressed in Flp-In-CHO cells assessed as inhibition of NECA reduced forskolin stimulated cAMP accumulation incubated for 30 mins. The class given is functional, cell-based.
For test [13], the target named is T3, Adenosine receptor A1 (Homo sapiens, UniProt P30542).
T3 sequence (P30542 whole entry): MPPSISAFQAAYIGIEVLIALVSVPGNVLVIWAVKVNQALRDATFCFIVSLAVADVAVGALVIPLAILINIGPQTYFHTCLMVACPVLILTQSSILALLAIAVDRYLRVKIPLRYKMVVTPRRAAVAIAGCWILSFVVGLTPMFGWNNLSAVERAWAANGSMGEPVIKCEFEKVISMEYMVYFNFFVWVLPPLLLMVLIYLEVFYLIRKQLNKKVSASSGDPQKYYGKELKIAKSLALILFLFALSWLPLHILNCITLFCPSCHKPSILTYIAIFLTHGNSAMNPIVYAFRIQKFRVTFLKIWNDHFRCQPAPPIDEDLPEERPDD
Nature of the test: Binding affinity to wild type A1R (unknown origin) expressed in CHO-K1 cells assessed as equilibrium binding affinity constant by nanoBRET assay. Type of test: cell-based.

The target of test [14] is T3, Adenosine receptor A1. The test is described as follows: Antagonist activity at wild type A1R (unknown origin) expressed in CHO-K1 cells assessed as inhibition of NECA reduced forskolin stimulated cAMP accumulation incubated for 30 mins. Type of test: functional, cell-based.
For test [15], the target named is T3, Adenosine receptor A1. The test is described as follows: Binding affinity to Nluc-A1R (unknown origin) expressed in HEK293 cells by nanoBRET assay. Type of test: cell-based.
For test [16], the target named is T3, Adenosine receptor A1. The test is described as follows: Binding affinity to human adenosine A1R expressed in CHO cells membrane. The class given is cell membranes.
For test [17], the target named is Adenosine receptor A1 (Homo sapiens, UniProt P30542, S267A). Nature of the test: Binding affinity to A1R S267 7.32A mutant (unknown origin) in by saturation NanoBRET binding assay.
Sequence of Adenosine receptor A1 (Homo sapiens, UniProt P30542, S267A) (P30542 whole entry S267A): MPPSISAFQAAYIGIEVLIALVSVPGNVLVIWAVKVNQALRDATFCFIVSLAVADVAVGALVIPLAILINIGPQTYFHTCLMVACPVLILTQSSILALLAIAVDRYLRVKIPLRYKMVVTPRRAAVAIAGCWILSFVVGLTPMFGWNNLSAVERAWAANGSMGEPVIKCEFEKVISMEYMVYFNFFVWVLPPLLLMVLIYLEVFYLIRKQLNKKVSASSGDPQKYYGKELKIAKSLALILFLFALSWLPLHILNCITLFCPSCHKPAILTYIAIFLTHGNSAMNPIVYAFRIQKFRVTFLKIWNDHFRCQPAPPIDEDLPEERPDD
Test [18] deals with Adenosine receptor A1 (Homo sapiens, UniProt P30542, E172A). Nature of the test: Binding affinity to A1R E172 5.30A mutant (unknown origin) by saturation NanoBRET binding assay.
Sequence of Adenosine receptor A1 (Homo sapiens, UniProt P30542, E172A) (P30542 whole entry E172A): as the sequence (P30542 whole entry S267A) above, with E172A, A267S counted along it
Test [19] addresses Adenosine receptor A1 (Homo sapiens, UniProt P30542, H251A). Nature of the test: Binding affinity to A1R H251 6.52A mutant (unknown origin) by saturation NanoBRET binding assay.
The target of test [20] is Adenosine receptor A1 (Homo sapiens, UniProt P30542, L250A).
Sequence of Adenosine receptor A1 (Homo sapiens, UniProt P30542, L250A) (P30542 whole entry L250A): as the sequence (P30542 whole entry S267A) above, with L250A, A267S counted along it
Description: Binding affinity to A1R L250 6.51A mutant (unknown origin) by saturation NanoBRET binding assay
For test [21], the target named is T3, Adenosine receptor A1. Nature of the test: Binding affinity to wild type A1R (unknown origin) by saturation NanoBRET binding assay.
Test [22] is described as follows: Binding affinity to A1R Y271 7.36A mutant (unknown origin) by saturation NanoBRET binding assay. Also on record: species or system Homo sapiens.
For test [23], the target named is T4, Adenosine receptor A1 (Homo sapiens) (UniProt P30542).
T4 sequence (whole entry): T3 sequence (P30542 whole entry)
Nature of the test: Displacement of [3H]-DPCPX from human adenosine A1R expressed in CHO cells membrane assessed as association constant (kon) incubated for 45 mins. As to conditions: filed as antagonist. Type of test: cell membranes.

For test [24], the target named is T4, Adenosine receptor A1 (Homo sapiens). The test is described as follows: Displacement of [3H]-DPCPX from human adenosine A1R expressed in CHO cells membrane assessed as dissociation constant (koff) preincubated for 1 hr followed by compound addition and measured after 1 hr. The class given is cell membranes. The note with it: filed as antagonist.
Test [25] addresses T3, Adenosine receptor A1. Nature of the test: Displacement of [3H]-DPCPX from human adenosine A1R expressed in CHO cells membrane incubated for 1 hr. The class given is cell membranes.
Test [26] deals with T4, Adenosine receptor A1 (Homo sapiens). The test is described as follows: Displacement of [3H]-DPCPX from human adenosine A1R expressed in CHO cells membrane assessed as residence time. Type of test: cell membranes. As to conditions: filed as antagonist.

Sequence of Adenosine receptor A1 (Homo sapiens, UniProt P30542, H251A) (P30542 whole entry H251A): as the sequence (P30542 whole entry S267A) above, with H251A, A267S counted along it

For the compound `COc1cccc(Cn2c(=O)n(CC3CC3)c(=O)c3c2nc2cc(OC)ccn23)c1`, the Kd in test [1] came to 9.11 nM. The K in test [2] is 8.17 10^6/M/min; in [4] it was 0.0065 min⁻¹. Also, in [3], the TIME was 2.8 h.
Turning to `CC[C@@H]1CN2C(=O)N(C)C3N=C(c4ccccc4)NC3C2=N1` (some centres undefined), the values for the K in test [5] and in test [7] were 2.35 10^8/M/min and 0.208 min⁻¹, respectively. Further, the TIME in [6] was determined as 0.08 h. Besides, the Kd in test [8] was found to be 0.46 nM.
As to `COc1cc(Nc2nccc3c(-c4ccccc4)n[nH]c23)cc(OC)c1OC`, the Kd was 251 nM in test [9] and 74.1 nM in test [10]. For the same compound, the Ki in test [11] is 100 nM. In addition, the IC50 in test [12] was 5.13 nM.
`Cn1nc(NC(=O)c2ccccc2)c2cc(Nc3ccccc3)ncc21`: the results for the Kd in test [9] and in test [15] were 170 nM and 851 nM, respectively. Also, the Ki was > 955 nM in test [13] and 234 nM in test [11]. Also, the results for the IC50 in test [14] and in test [12] were 5.01 nM and 6.76 nM, respectively.
In the case of `COc1cc(Nc2nc(C#N)cc3cn[nH]c23)cc(OC)c1OC`, the Ki in [13] was 229 nM. Besides, the IC50 in test [14] was 10.2 nM. The compound further showed a Kd in test [15] of 102 nM.
`CCCn1c(=O)[nH]c(=O)c2[nH]c(C3CCCC3)nc21`: in test [16], the Kd turned out to be 1.5 nM.
For the compound `COc1cc(Nc2nc(C#N)cc3c(-c4ccccc4)n[nH]c23)cc(OC)c1OC`, the Ki in [13] is 4.37 nM. The Kd in test [17] (read-out: pKd (converted)) was 7.94 nM; in [18] (read-out: pKd (converted)) it was 23.4 nM; in test [19] (read-out: pKd (converted)), 9.33 nM; in test [20], 3.63 nM; in [15], 1.74 nM; in [21] it was 13.5 nM. The IC50 in test [14] was 200 nM.
Take `COc1cc(Nc2nc(C#N)cc3c(C(C)C)n[nH]c23)cc(OC)c1OC`: in [9], the Kd is 355 nM. The Ki in test [11] is 603 nM. Moreover, in [12], the IC50 was 3.8 nM.
`COc1cc(Nc2nc(CNCc3ccccc3)cc3c(-c4ccccc4)n[nH]c23)cc(OC)c1OC`: the Kd in test [9] is 158 nM; in [10], 186 nM; in test [15], 427 nM. For the same compound, the results for the Ki in test [13] and in [11] were 204 nM and 85.1 nM, respectively. The IC50 in test [14] is 3.89 nM; in test [12], 7.24 nM.
For the compound `Cn1nc(NC(=O)Nc2ccccc2)c2ccnc(NC3CCCCC3)c21`, the Kd in [9] is 302 nM. Moreover, the Ki is 1000 nM in test [13] and 64.6 nM in test [11]. For the same compound, the IC50 in test [14] is 1.41 nM; in [12], 4.27 nM.
Regarding `CCCn1c(=O)c2[nH]c(-c3ccc(OCC(=O)NCCNC(=O)CCNC(=O)CCCCNC(=O)CCCCCNC(=O)COc4ccc(/C=C/C5=[N+]6C(=Cc7ccc(-c8cccs8)n7[B-]6(F)F)C=C5)cc4)cc3)nc2n(CCC)c1=O`, the Kd is 71 nM in [17] (read-out: Kd); 116 nM in [18] (read-out: Kd); 145 nM in test [19] (read-out: Kd); 158 nM in [20]; 71.1 nM in test [22].
For the compound `N#Cc1cc2c(-c3ccccc3)n[nH]c2c(Nc2ccccc2)n1`, the results for the Kd in test [9], in test [10] and in test [15] were 17 nM, 26.3 nM and 61.7 nM, respectively. Also, the figures for the Ki in [13] and in [11] were 214 nM and 43.7 nM, respectively. The IC50 in test [14] is 13.5 nM; in test [12] it was 60.3 nM.
As to `N#Cc1c(N)nc(SCc2ncc[nH]2)c(C#N)c1-c1ccc(O)cc1`, the K was 2 10^8/M/min in [23] and 0.92 min⁻¹ in test [24]. Also, in test [25], the Kd was 4.6 nM. In [26], the TIME was determined as 0.0183 h.
`CCNC(=O)[C@H]1O[C@@H](n2cnc3c(N)ncnc32)[C@H](O)[C@@H]1O` [NECA]: in [22], the pKd turned out to be 5.45.
Consider `COc1cc(Nc2nc(CN)cc3c(-c4ccccc4)n[nH]c23)cc(OC)c1OC`, for which the values for the Kd in [9], in test [10] and in [15] were 257 nM, 257 nM and 40.7 nM, respectively. In addition, the values for the Ki in [13] and in [11] were 22.9 nM and 132 nM, respectively. The IC50 in [14] was 22.9 nM; in test [12], 4.9 nM.
With `O=C(CNc1ccccc1)Nc1n[nH]c2cnc(Nc3ccccc3)cc12`, the Kd in test [9] was 490 nM; in test [10], 355 nM; in [15], 282 nM. Moreover, the inhibitory constant (Ki) is 363 nM in test [13] and 0.115 nM in [11]. The IC50 was 6.92 nM in [14] and 3.02 nM in [12].
As to `COc1cc(Nc2nc(Cl)cc3c(C(C)C)n[nH]c23)cc(OC)c1OC`, the Kd in [9] is 550 nM; in test [15] it was 282 nM. For the same compound, the Ki in test [13] was 288 nM; in test [11], 631 nM. Besides, the values for the IC50 in [14] and in test [12] were 5.01 nM and 2.82 nM, respectively.
`COc1cc(Nc2nc(Cl)cc3c(-c4ccccc4)n[nH]c23)cc(OC)c1OC`: the Kd in test [9] was 89.1 nM; in test [10] it was 85.1 nM. Further, the Ki in test [11] was 55 nM. Besides, in test [12], the IC50 was 12.3 nM.
Turning to `Cn1nc(NC(=O)CNc2ccccc2)c2cc(Nc3ccccc3)ncc21`, the Ki in [13] was 295 nM. In [14], the IC50 is 2.63 nM. In addition, the Kd in test [15] is 398 nM.
